# Reference: patent US20200345021A1, “METHOD AND SYSTEM FOR ENHANCING THE EFFICACY USING IONIZED/A[…] PEROXIDE IN REDUCING MICROBIAL POPULATIONS, METHOD OF USE THEREOF” (priority 2019, published 2020)
# Values joined by “and” are separate entries in the source; they are usually repeats but may differ in a detail not shown here. Equal entries are not always repeated. Where two headings read alike, the source gives them in different places. Marks after values point to notes of the source that are not given here.
# How the values were obtained:
# [1] = Text: Specifically, a scanning mobility particle sizer (SMPS Model 3080, TSI inc., Shoreview, Minn., USA) and an aerodynamic particle sizer (APS Model 3321, TSI Inc.) were connected to the treatment chamber through an access port in the back of the treatment chamber to measure droplet sizes ranging from 2.5 to 210 nm, and from 0.5 to 20 μm, respectively.
# [2] = test system: S. Typhimurium
# [3] = test system: Salmonella Typhimurium; type: cell-based; settings: for Reductions of Salmonella, range over the fresh produce items: all tested produce items and surfaces, optimized conditions
# Text: To minimize the risk of possible bacteria becoming airborne during treatments, attenuated and non-pathogenic bacteria were used in the study. Two strains of non-pathogenic S. Typhimurium (ATCC 53647 and 53648) and three strains of L. innocua (ATCC 33090, ATCC 51742 and ATCC BAA680) were obtained from American Type Culture Collection (ATCC) (Manassas, Va., USA). Further studies used E. coli O157:H7 (ATCC 700728), S. Typhimurium (ATCC 53647 and 53648), and L. innocua (ATCC 33090) obtained from American Type Culture Collection (ATCC) (Manassas, Va., USA) and maintained as a part of the culture collection at the USDA Eastern Regional Research Center (Wyndmoor, Pa. USA). The bacteria were made to be resistant to nalidixic acid by successive growth in Trypic Soy Broth (TSB) (Difco, Sparks, Md., USA) with increasing nalidixic acid concentrations. All strains were stored at −80° C. in 1 mL of TSB containing 10% glycerol. Working cultures of S. Typhimurium and L. innocua were maintained in 9 mL TSB (supplemented with 100 μg/mL nalidixic acid for S. Typhimurium) at 4° C. after incubating at 37° C. for […], respectively, and sub-cultured each time.
# Each strain of S. Typhimurium and L. innocua was cultured in 9 mL TSB (supplemented with 100 μg/mL nalidixic acid for S. Typhimurium) and incubated at 37° C. for 40 h and 48 h, respectively, harvested by centrifugation at 4000×g for 10 min at 4° C., and resuspended in 9 mL sterile Buffered Peptone Water (BPW; Difco). The pellets were resuspended in BPW to form cell suspensions with a final concentration of 108˜10^9 CFU/mL. Subsequently, suspended pellets of two strains of Salmonella and three strains of L. innocua were combined to obtain two separate culture cocktails.
# Grape tomatoes, granny smith apples, romaine lettuce and cantaloupes were purchased from local markets (Philadelphia, Pa., USA) and kept at 10° C. prior to use. Fruits and vegetables were removed from 10° C. refrigeration and equilibrated to ambient temperature before being inoculated. Romaine lettuce was divided into upper green leaf and midrib tissues. Six tomatoes, six pieces (2×2 cm) of apple skins, five pieces (3×3 cm) of Romaine lettuce upper leaves, five pieces (3 cm length) of Romaine lettuce midrib area and six pieces (2×2 cm) of cantaloupe rinds with 2×3 mm thickness of flesh were used for each treatment per replicate. Bach piece w as spot inoculated with 10 μL of Salmonella and L. innocua by depositing droplets with a micropipette. The inoculated samples were dried in a bio-hood for 1 h (for tomato surfaces, romaine lettuce, apple skins and cantaloupe rinds) or 2 h (for tomato stem scars) at ambient temperature.
# Produce items were placed onto a sterile test tube rack with the inoculated area facing up and the rack with produce pieces were placed inside of a treatment chamber (12×12×24 inch).
# Therefore, each kind of produce was treated with and without cold plasma ionized under the same optimized conditions.
# After each treatment, the tomato stem scars and surfaces with the inoculated bacteria were removed using a pair of sterile scissors. Each type of produce item from the same treatment was combined (total weight: 1.51±0.29 g for tomato stem scars; 2.07±0.15 g for tomato surfaces; 6.37±0.92 g for apple skins; 1.62±0.34 g for Romaine lettuce upper leaves: 13.30±2.97 g for Romaine lettuce midrib tissues: 9.58±1.26 g for cantaloupe rinds) and transferred into an 80 mL filtered stomacher bag. After addition of 30 mL BBL buffered peptone water into the bag, the sample in the bag was homogenized using a mini blender (Mini Mix CC, Interscience laboratories Inc., Woburn, Mass., USA) for 2 min at a setting of 4. […] Tryptic Soy Agar with 200 μg/mL pyruvate acid and 100 μg/mL nalidixic acid (TSA-PN) and PALCAM Agars (Difco) were used for the enumeration of S. Typhimurium and L. innocua, respectively.
# [4] = test system: E. coli O157:H7
# [5] = test system: L. innocua; settings: 45 s treatment + 30 min dwell
# [6] = treatment chamber, immediately after introduction
# [7] = Cantaloupe rind, 30 s spray time + 30 min dwell, listed as H2O2 + cold plasma
# [8] = Romaine lettuce-midrib, 30 s spray time + 30 min dwell, listed as H2O2 + cold plasma
# [9] = Romaine lettuce-upper leaf, 30 s spray time + 30 min dwell, listed as H2O2 + cold plasma
# [10] = Tomato-stem scar, three cycles of 20 s spray time plus 20 min dwell time, listed as H2O2 + cold plasma
smiles,measurement,setting,value
"OO [H2O2, hydrogen peroxide]",Nanosize droplets remained in the treatment chamber,[1]; after 30 min (end of treatment),about 8%
same,Share of droplets in the range of <5 μm,"[1]; micrometer range, immediately after introduction",About 80%
same,Mean diameter of droplets in the micrometer range,[1]; [6],3.0 μm
same,Mean diameter of nanosize droplets,[1]; [6],40.3 nm
same,Mode (peak) of nanosize droplets,[1]; [6],33.4 nm
same,Mode of droplets in the micrometer range,[1]; [6],4.0 μm
same,Total number of droplets in micrometer range (0.5-20 μm),[1]; [6],4390 #/cc
same,Total number of droplets in the nanosize range,[1]; [6],"84,000 #/cc"
same,Reduction of Salmonella,[2],4.2 log CFU/leaf
same,Populations of Salmonella Typhimurium,[3]; [7],3.76 ± 0.53^c log CFU/piece
same,Reductions of Salmonella Typhimurium,[3]; [7],2.61 ± 0.53^x log CFU/piece
same,Reductions of Salmonella Typhimurium,"[3]; Granny Smith apples, 8 s spray time + 30 min dwell, listed as H2O2 + cold plasma",5.50 ± 0.19^x log CFU/piece
same,Reductions of Salmonella Typhimurium,"[3]; Granny Smith apples, 8 s spray time + 30 min dwell, listed as iHP",> 5 log CFU/piece
same,Populations of Salmonella Typhimurium,[3]; [8],2.54 ± 0.32^c log CFU/piece
same,Reductions of Salmonella Typhimurium,[3]; [8],3.40 ± 0.32^x log CFU/piece
same,Populations of Salmonella Typhimurium,[3]; [9],3.54 ± 0.11^c log CFU/piece
same,Reductions of Salmonella Typhimurium,[3]; [9],2.88 ± 0.11^x log CFU/piece
same,Populations of Salmonella Typhimurium,[3]; [10],3.60 ± 0.70^c log CFU/piece
same,Reductions of Salmonella Typhimurium,[3]; [10],2.35 ± 0.30^x log CFU/piece
same,Reductions of Salmonella Typhimurium,"[3]; Tomato-surface, 8 s spray time + 30 min dwell, listed as H2O2 + cold plasma",5.28 ± 0.49^x log CFU/piece
same,Reductions of Salmonella Typhimurium,"[3]; Tomato-surface, 8 s spray time + 30 min dwell, listed as iHP",> 5 log CFU/piece
same,"Reductions of Salmonella, range over the fresh produce items",[3]; listed as hydrogen peroxide (H2O2) with cold plasma,2.35-5.50 log CFU/piece
same,"Reductions of Salmonella, range over the fresh produce items",[3]; listed as iHP,2.35-5.50 log CFU/piece
same,Reduction of E. coli populations,[4],1.5 log
same,Populations of L. innocua,[5]; cantaloupe,3.5 +/− 0.2b log CFU/piece
same,Reduction of L. innocua,[5]; cantaloupe,3.0 log CFU/piece
same,Populations of L. innocua,[5]; spinach,2.5 +/− 1.9b log CFU/piece
same,Reduction of L. innocua,[5]; surface of spinach leaves,4.0 log CFU/leaf
same,Reduction of L. innocua,"[5]; tomato stem scar area, listed as ionized/aerosolized hydrogen peroxide (H2O2)",1.0-1.3 log CFU/piece and 1.3 log CFU/piece
same,Populations of L. innocua,[5]; tomato stem scar,4.9 +/− 0.4b log CFU/piece
